Data as given in patent US20260069584A1, “METHODS OF TREATING CHRONIC MYELOID LEUKEMIA USING THE TYROSINE KINASE INHIBITOR VODOBATINIB” (Sun Pharma Advanced Research Company Ltd., priority 2022, published 2026).

Legend:
[1] = Oral toxicity study in Wistar Rats; settings: rat, in vivo
[2] = system: Ph+ CML (CP CML, AP CML and BP CML) and Ph+ ALL; assay: Phase 1/2 dose-escalation and expansion study (Part B): disease response, all subjects; type: in vivo
Excerpt: This was a Phase I/2, open-label, single-agent, multicenter, multi-dose, dose-escalation study in subjects with Philadelphia chromosome-positive Ph+ CML (CP CML, AP CML and BP CML) and Ph+ ALL. The primary objectives of this study were to determine the maximum tolerated dose (MTD; or recommended Phase 2 dose [RP2D]) of the compound of Formula I when administered orally and to evaluate its safety.
For patient selection, key inclusion criteria included men or women aged ≥18 years with Eastern Cooperative Oncology Group performance status 0, 1, or 2 with Ph+ CML (CP CML, AP CML, or BP CML) who are resistant and/or intolerant to ≥3 prior TKIs, having adequate organ and immune system function as indicated by Table 09, obtained ≤2 weeks prior to the administration of the compound of Formula I. Subjects with presence of T3151 mutations were not included in the study.
In this study, the dose-escalation cohort started with an accelerated titration study design (ATD) and shifted to a 3±3 design when subjects in the preceding ATD cohort experienced either grade 2 or higher adverse events (AEs) or dose-limiting toxicity (DLT) during Cycle 1 that was not clearly and incontrovertibly related to the underlying disease or concomitant medications. The DLT period consisted of 28 days (Cycle 1). Subjects experiencing DLTs were managed with dose delays and/or discontinuation and continued in the study until disease progression. Decisions to advance to a succeeding dose level occurred after the evaluation of safety and tolerability data for a given dose level.
Accordingly, the eligible subjects were treated in 4-week cycles of once daily self-administration of the compound of Formula I. The administration was after an overnight fast, or after maintaining approximately 2 hours of fasting before and after the dosing in all cycles.
For the cohorts, where the 3±3 design applies, 3 subjects were enrolled initially. If 2 of these subjects experienced a Grade 2 or more toxicity (that was not clearly and incontrovertibly related to the underlying disease or concomitant medications), subsequent cohorts were escalated according to smaller increments. Further, if there were no DLTs in the first 3 subjects, dose escalation to the next higher dose level was allowed to proceed. If 1 of the 3 subjects experienced a DLT, that dose level was expanded to 6 subjects (3 additional subjects were enrolled). If 2 subjects at a given dose level experienced a DLT, the MTD was considered to have been exceeded. The next lower dose level was expanded to 6 subjects, or if 6 subjects had already been enrolled and no more than 1 of the 6 subjects experienced a DLT, then this lower dose level was considered the MTD. Additional subjects were enrolled in dose escalation cohorts for further assessment of safety and efficacy of the compound of Formula 1 at doses that were tolerated (i.e., doses that have <2 DLTs in 6 enrolled subjects or <1 DLT in 3 enrolled subjects). Thus 204 mg was arrived at as MTD. A subject experiencing a DLT was allowed to continue therapy with a reduced dose. Subjects who experienced a DLT and recovered were treated at the next lower dose level until disease progression or other events requiring further dose reduction existed. For cohorts at Dose Level 2 or higher, a further dose reduction (i.e., up to 2 levels lower than their originally assigned dose) was implemented in the case of a further DLT or other non-DLT events requiring a dose reduction, if and when the event leading to dose reduction returned to Grade 1 or lower in severity. The reduced dose was re-escalated to the original or higher dose (i.e., the dose for which safety had been established in the dose escalation cohort) considering subject safety and response to the compound of Formula I. The subject was discontinued from treatment using the compound of Formula I, if dose reduction below 48 mg was required. […]

For Cc1ccc(C(=O)NNC(=O)c2c(C)cccc2Cl)cc1C#Cc1cnc2ccccc2c1 [compound of Formula I, N′-(2-chloro-6-methylbenzoyl)-4-methyl-3-[2-(3-quinolyl)ethynyl]-benzohydrazide], the NOAEL [1] was 100 mg/kg/day, the major molecular response ([2]; 18 of the 41 enrolled subjects) was 43.9% and the “Major cytogenetic response (MCyR) as best response” value ([2]; 19 subjects enrolled at 174 mg) was 10 subjects. The “complete cytogenetic response (CCyR)” value ([2]; 19 subjects enrolled at 174 mg) was 9 subjects, the “major hematological response (MaHR) as best response” value ([2]; 19 subjects enrolled at 174 mg) was “all subjects” and the “major molecular response as best response” value ([2]; 19 subjects enrolled at 174 mg) was 4 subjects. The “partial cytogenetic response (PCyR)” value ([2]; 19 subjects enrolled at 174 mg) was 1 subjects, the complete cytogenetic response ([2]; 23 out of 41 enrolled subjects) was 56.1% and the complete hematologic response ([2]; 29 out of 41 enrolled subjects, refractory, 2 or more prior TKIs) was 70.7%. The individual subject outcome ([2]; AP CML, 48 mg escalated, ~24 months, daily dose of 174 mg) was “attained MCyR”, the individual subject outcome ([2]; CP CML, 12 mg escalated to 174 mg) was “achieved and maintained CCyR at doses ≥48 mg” and the individual subject outcome ([2]; CP CML, 24 mg escalated to 126 mg and 174 mg) was “maintain CCyR and molecular response between MMR and M2”. The individual subject outcome ([2]; CP CML, 126 mg reduced to 90 and 66 mg (thrombocytopenia), re-escalated to 126 mg and 174 mg) was “tolerated the re-escalated higher dose well”, the individual subject outcome ([2]; CP CML, 174 mg reduced to 126 mg (grade 3/4 deranged pancreatic enzymes)) was “complete cytogenetic response and major molecular response” and the individual subject outcome ([2]; CP CML, 204 mg reduced to 174 mg (memory loss)) was “maintains a complete cytogenetic response and major molecular response”. For the same compound, the individual subject outcome ([2]; CP CML, 204 mg reduced to 174 mg (severe thrombocytopenia)) was “partial cytogenetic response and improved molecular response”, the individual subject outcome ([2]; CP CML, 3 prior TKIs incl. Ponatinib, 48 mg escalated to 174 mg) was “re-attained major molecular and cytogenetic responses” and the individual subject outcome ([2]; CP CML, 4 prior TKIs, 48 mg escalated to 90 mg and 174 mg) was “maintain complete cytogenetic and major molecular responses”. The individual subject outcome ([2]; CP CML, 4 prior TKIs, 66 mg escalated to 90 mg) was “Ph+ cells decreased to minimal cytogenetic response”, the individual subject outcome ([2]; CP CML, 6 prior TKIs, 174 mg escalated to 204 mg) was “improvement in cytogenetic response to minor cytogenetic response” and the individual subject outcome ([2]; CP CML, F317L, 66 mg reduced to 48 mg (back pain of grade 2)) was “maintained CCyR and MMR at 48 mg dose for ˜2.5 years”. The individual subject outcome ([2]; CP CML, M351T, 174 mg escalated to 204 mg at cycle 7, cycle 22) was “maintaining a complete hematological response and stable disease”, the individual subject outcome ([2]; donor one CP CML, 2 prior TKIs, 174 mg escalated to 204 mg) was “maintaining a hematological response” and the individual subject outcome ([2]; donor two CP CML, 2 prior TKIs, 174 mg escalated to 204 mg) was “improvement in cytogenetic response to partial cytogenetic response and improved molecular response”. For the same compound, the highest efficacious dose ([2]; human, in vivo) was 204 mg, the “lowest dose observed to be therapeutically efficacious” value ([2]; human, in vivo) was 48 mg and the “best cytogenetic response, Ph+” value ([2]; one AP CML subject, Y253F, 48 mg escalated to 204 mg, 39 cycles, PCyR) was 10%. The “best molecular response, BCR-ABL” value ([2]; one AP CML subject, Y253F, at 204 mg, 36 cycles) was 0.931 % IS, the individual subject outcome ([2]; subject at 66 mg, F317L with ACA) was “CCyR in cycle 7 and MMR in cycle 4” and the “duration of maintained disease response at the lower dose” value ([2]; subject with F317L, reduced from 66 mg to 48 mg) was “about 2.5 years”.
